Results as given in EP0034120A1, “Derivatives of phenoxy-phenoxy-carboxylic acids” (CIBA-GEIGY AG, priority 1980, dated 1981).

How the values were obtained:
Type in all cases: in vivo
Design in all cases: key: 1 Pflanze abgestorben; 2-4 schwere Schädigung; 3: 2-4 schwere Schädigung; 2-4 schwere Schädigung; 5, 6 mittlere Schäden; 5, 6 mittlere Schäden; 7, 8 leichte Schäden; 7, 8 leichte Schäden; 9 Pflanze gedeiht normal, wie unbehandelte Kontrollpflanze
[1] = test system: Reis; test: Herbicidal action, pre-emergent application (greenhouse); settings: after 3 weeks
Procedure: (§1) wurde durchfolgende Versuche ermittelt: Herbizide Wirkung bei Applikation der Wirkstoffe vor dem Auflaufen der Pflanzen (pre-emergent) Im Gewächshaus werden Pflanzensamen in Blumentöpfe von ca. 11 cm Durchmesser gesät. […] Die Töpfe werden dann im Gewächshaus unter optimalen Bedingungen für das Pflanzenwachstum, regelmässiges Bewässern, einer Temperatur von 22-25°C und 50-70% relativer Luftfeuchtigkeit gehalten. Der Versuch wird nach 3 Wochen abgebrochen und der Zustand der Pflanzen gemäss dem folgenden EWRC (European Weed Research Councel) Bewertungsschema registriert: • 1 Pflanze abgestorben • 2-4 schwere Schädigung • 5, 6 mittlere Schäden • 7, 8 leichte Schäden • 9 Pflanze gedeiht normal, wie unbehandelte Kontrollpflanze.

[2] = test system: Weizen; test: as above; settings: after 3 weeks
Procedure: as §1

[3] = test system: abutilon sp; test: as above; settings: after 3 weeks
Procedure: as §1

[4] = test system: amarantus retrofl.; test: as above; settings: after 3 weeks
Procedure: as §1

[5] = test system: beta vulgaris; test: as above; settings: after 3 weeks
Procedure: as §1

[6] = test system: chenopodium sp.; test: as above; settings: after 3 weeks
Procedure: as §1

[7] = test system: chrysanthemum l.; test: as above; settings: after 3 weeks
Procedure: as §1

[8] = test system: sinapis alba; test: as above; settings: after 3 weeks
Procedure: as §1

[9] = test system: viola tricolor; test: as above; settings: after 3 weeks
Procedure: as §1

[10] = test system: Ammania indica; test: Selective herbicidal action in rice, post-emergence (flooded trays); settings: applied into paddy water, evaluated after 4 weeks
Procedure: (§2) Reispflänzchen, welche 25 Tage alt sind, wurden im Gewächshaus in grosse rechtackige Eternitschalen vergflanzt. Zwischen die Reiben der Reispfianzon wurden dann Samen der in Reiskulturen vorkommanden Unkräuter Echinochloa crus galli, Cyperus difformis, ? und Rotala gesät. Die Schalen wurden gut bewässert und bei einer Temperatur von ca. 25°C und hoher Luftfeuchtigkeit gehalten. Nach 12 Tagen, wenn die Unkräuter aufgelaufen sind und das 2-3 Blattstadium erreicht haben, wurde die Erde in der Schale mit einer 2,5 cm hohen Schicht Wasser bedeckt. Die Verbindung No. 2 wurde denn als Emulsionskonzentrat mittels einer-Pipette zwischen die Pflanzenreihen appliziert, wobei man das Emulsionskonzentrat so verdünnte und auftrug, dass es einer Applikationsmenge im Feld von 2 und 1 kg Wirkstoff pro Hektar entsprach. Der Versuch wurde nach 4 Wochen ausgewertat.

[11] = test system: Cyperus difformis; test: as above; settings: applied into paddy water, evaluated after 4 weeks
Procedure: as §2

[12] = test system: Echinochloa crus galli; test: as above; settings: applied into paddy water, evaluated after 4 weeks
Procedure: as §2

[13] = test system: Reis; test: as above; settings: applied as emulsion concentrate into paddy water, evaluated after 4 weeks
Procedure: as §2

[14] = test system: Rotala indica; test: as above; settings: applied into paddy water, evaluated after 4 weeks
Procedure: as §2

Structure (SMILES): CCOC(=O)CCC(C)Oc1cc(Oc2ccc(C(F)(F)F)cc2Cl)ccc1Cl (stereo not shown) [Verbindung No. 2, 4-[3'-(2"-Chlor-4-trifluormethylphenoxy)-6'-chlorphenoxy]-valeriansäure-äthylester]
- Zustand der Pflanzen (EWRC Bewertungsschema) ([1]; Aufwandmenge 2 kg/ha): 9
- Zustand der Pflanzen (EWRC Bewertungsschema) ([1]; Aufwandmenge 4 kg/ha): 9
- Zustand der Pflanzen (EWRC Bewertungsschema) ([2]; Aufwandmenge 2 kg/ha): 9
- Zustand der Pflanzen (EWRC Bewertungsschema) ([2]; Aufwandmenge 4 kg/ha): 9
- Zustand der Pflanzen (EWRC Bewertungsschema) ([3]; Aufwandmenge 2 kg/ha): 5
- Zustand der Pflanzen (EWRC Bewertungsschema) ([3]; Aufwandmenge 4 kg/ha): 1
- Zustand der Pflanzen (EWRC Bewertungsschema) ([4]; Aufwandmenge 2 kg/ha): 1
- Zustand der Pflanzen (EWRC Bewertungsschema) ([4]; Aufwandmenge 4 kg/ha): 1
- Zustand der Pflanzen (EWRC Bewertungsschema) ([5]; Aufwandmenge 2 kg/ha): 3
- Zustand der Pflanzen (EWRC Bewertungsschema) ([5]; Aufwandmenge 4 kg/ha): 1
- Zustand der Pflanzen (EWRC Bewertungsschema) ([6]; Aufwandmenge 2 kg/ha): 2
- Zustand der Pflanzen (EWRC Bewertungsschema) ([6]; Aufwandmenge 4 kg/ha): 1
- Zustand der Pflanzen (EWRC Bewertungsschema) ([7]; Aufwandmenge 2 kg/ha): 1
- Zustand der Pflanzen (EWRC Bewertungsschema) ([7]; Aufwandmenge 4 kg/ha): 1
- Zustand der Pflanzen (EWRC Bewertungsschema) ([8]; Aufwandmenge 2 kg/ha): 1
- Zustand der Pflanzen (EWRC Bewertungsschema) ([8]; Aufwandmenge 4 kg/ha): 1
- Zustand der Pflanzen (EWRC Bewertungsschema) ([9]; Aufwandmenge 2 kg/ha): 2
- Zustand der Pflanzen (EWRC Bewertungsschema) ([9]; Aufwandmenge 4 kg/ha): 1
- Selektive herbizide Wirkung (rating) ([10]; 1 kg/ha): 3
- Selektive herbizide Wirkung (rating) ([10]; 2 kg/ha): 1
- Selektive herbizide Wirkung (rating) ([11]; 1 kg/ha): 5
- Selektive herbizide Wirkung (rating) ([11]; 2 kg/ha): 3
- Selektive herbizide Wirkung (rating) ([12]; 1 kg/ha): 4
- Selektive herbizide Wirkung (rating) ([12]; 2 kg/ha): 3
- Selektive herbizide Wirkung (rating) ([13]; 1 kg/ha): 7
- Selektive herbizide Wirkung (rating) ([13]; 2 kg/ha): 7
- Selektive herbizide Wirkung (rating) ([14]; 1 kg/ha): 4
- Selektive herbizide Wirkung (rating) ([14]; 2 kg/ha): 3
